Measurements: ChEMBL document CHEMBL3421630, “Myxochelins target human 5-lipoxygenase” (J Nat Prod, 2015)
pIC50: −log10 of the molar value. Active and inactive are the calls of the source. The calls are words filed in the database; no cut-off is given here.

Tests used:
[1] = target: T1, Polyunsaturated fatty acid 5-lipoxygenase (Homo sapiens) (UniProt P09917); details: 3 uM
T1 sequence (whole entry): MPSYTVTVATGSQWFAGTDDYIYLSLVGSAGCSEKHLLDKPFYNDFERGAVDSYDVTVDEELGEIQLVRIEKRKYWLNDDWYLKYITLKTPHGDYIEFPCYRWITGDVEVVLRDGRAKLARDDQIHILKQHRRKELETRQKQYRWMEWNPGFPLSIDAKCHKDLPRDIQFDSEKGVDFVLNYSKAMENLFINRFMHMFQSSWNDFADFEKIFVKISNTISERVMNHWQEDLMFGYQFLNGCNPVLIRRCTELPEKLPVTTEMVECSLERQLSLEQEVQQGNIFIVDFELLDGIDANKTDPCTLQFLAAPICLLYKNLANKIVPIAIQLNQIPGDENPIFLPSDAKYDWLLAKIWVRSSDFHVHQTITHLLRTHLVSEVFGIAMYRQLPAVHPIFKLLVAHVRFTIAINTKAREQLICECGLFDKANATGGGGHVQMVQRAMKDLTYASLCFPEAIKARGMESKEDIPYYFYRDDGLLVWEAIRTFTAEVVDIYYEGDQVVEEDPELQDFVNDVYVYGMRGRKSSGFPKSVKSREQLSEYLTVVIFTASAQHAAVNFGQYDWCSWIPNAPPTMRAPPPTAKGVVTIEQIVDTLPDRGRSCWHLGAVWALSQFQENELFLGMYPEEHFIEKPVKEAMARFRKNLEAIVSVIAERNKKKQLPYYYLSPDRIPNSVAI
Description: Inhibition of human recombinant 5-LOX expressed in Escherichia coli BL21 DE3 assessed as reduction in 5-LO product formation at 3 uM pre-incubated for 10 mins by RP-HPLC method

HeLa = experiment: Inhibition of cell proliferation of human HeLa cells after 72 hrs by methylene blue dye based assay; format: functional
[2] = target: T1, Polyunsaturated fatty acid 5-lipoxygenase (Homo sapiens); experiment: Inhibition of human recombinant 5-LOX expressed in Escherichia coli BL21 DE3 assessed as reduction in 5-LO product formation at 10 uM pre-incubated for 10 mins by RP-HPLC method
[3] = target: T2, Prostaglandin E synthase (Homo sapiens) (UniProt O14684); experiment: Inhibition of m-PGES1 in IL-1beta-induced human A549 cell microsomes assessed as reduction in […]PGE2 production up to 100 uM pre-incubated for 15 mins before PGH2 addition by UV detection based reverse-phase high-performance liquid chromatography
T2 sequence (whole entry): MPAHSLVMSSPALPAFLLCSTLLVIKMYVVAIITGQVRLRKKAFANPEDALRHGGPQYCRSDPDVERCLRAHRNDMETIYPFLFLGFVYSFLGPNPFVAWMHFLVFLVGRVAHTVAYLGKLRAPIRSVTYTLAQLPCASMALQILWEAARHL

[4] = Siderophore activity by chrome azurol S assay
K562 = experiment: Inhibition of cell proliferation of human K562 cells after 72 hrs by cell-titer-blue assay; format: functional, cell-based; details: K562, 72 h
[5] = target: T1, Polyunsaturated fatty acid 5-lipoxygenase (Homo sapiens); experiment: (§1) Inhibition of human recombinant 5-LOX expressed in Escherichia coli BL21 DE3 assessed as reduction in 5-LO product formation pre-incubated for 10 mins by RP-HPLC method
[6] = target: T3, Polyunsaturated fatty acid 5-lipoxygenase (Homo sapiens, UniProt P09917); experiment: as §1
T3 sequence (P09917 whole entry): T1 sequence (whole entry)

| SMILES | inhibition [1] | pIC50 (HeLa) | inhibition [2] | inhibition [3] | Activity [4] | pIC50 (K562) | inhibition [5] | pIC50 [6] |
| --- | --- | --- | --- | --- | --- | --- | --- | --- |
| CC(c1cc2ccccc2s1)N(O)C(N)=O (stereo not drawn) | Active | – | – | – | – | – | – | – |
| O=C(NCCCC[C@@H](CO)NC(=O)c1cccc(O)c1O)c1cccc(O)c1O | – | 3.52 | Active | inactive | Active | 5.41 | Dose-dependent effect | 5.72 |
